Laboratory results as given in patent US20070110885A1, “Method for controlling retention of an organic compound or of a plurality of organic compounds inside a liquid or solid phase and applications of said method, in particular in the agri-food domain” (priority 2002, published 2007).

How the values were obtained:
Format in all cases: physicochemical
[1] = Static headspace measurement of aroma release from a liquid phase to the vapour phase versus redox potential modified by gas bubbling; details: for change of mass sharing coefficient Ki when the redox potential of the first liquid phase is lowered: liquid phase/gas phase; for effect of redox on aroma release/retention (headspace): FIG. 3, 4, 5
From the text: The study of the checking of the mass sharing coefficient Ki of an organic compound (i) between two phases, respectively a first liquid phase and a second vapour phase, as a function of the redox potential value includes the quantification of the organic compound (i) in the vapour phase at equilibrium, by the static headspace technique. In the examples, the method of the invention is illustrated with aroma-type organic compounds (i).
The static headspace technique consists in analyzing the vapours in equilibrium above a solution placed in a confined atmosphere at a given temperature. The vapour analysis in gas chromatography (CPG) gives the volatile compound concentration of the “head space”.
The aroma solutions are prepared in a solution of 50 mM NaCl, the pH of which has been adjusted to pH 3 with HCl (1N) or at pH 7.5 with NaOH (1N).
Furthermore, tests have also been realized in the presence of a lactoserum protein, the β-lactoglobuline, dispersed (3%) in a solution of 50 mM NaCl at pH 3 or pH 7.5, or in whole or skimmed milk.
The redox is modified by bubbling a gas (hydrogen, nitrogen, helium, or oxygen) at a flowrate of 20 mL.min^−1 for a previously determined time (8 min). The redox measurement is realized after the gas bubbling step with a redox measurement electrode connected to a pH meter-voltameter. The thus prepared solutions are distributed on the basis of 10 mL in brown flasks of 40 mL (Supelco, France) closed by Mininert valve plugs (Supelco). […]
A control is realized in the presence of air: the bubbling step is not realized, only the pressurization occurs, in the same conditions as the other gasses.
The flasks are then equilibrated in a water bath at 30° C. for 1 hr 30. At least 3 brown flasks are prepared for each gas, a flask serving only for one injection.
At the equilibrium, 1 mL of vapour phase is taken with a 1 mL gas syringe (SGE), then injected in a gas chromatograph (CPG) provided with a DB-WAX column (J&W Scientific, diameter 0.32 mm, length 30 m, phase thickness 0.5 μm) and a flame ionization detector. The injector and detector temperatures are respectively 250° C. and 260° C. The vector gas velocity (hydrogen) at 143° C. is of 37 cm.sec-^1. The signal acquisition is achieved with a chromatogram acquisition and treatment software developed in the laboratory.
Thus, the amount of aroma present in the vapour phase is determined for each gas.

[2] = Evaluation of the aroma losses during gas bubbling (Tenax entrapment and pentane extraction); details: 50 ppm in NaCl 50 mM pH 7.5
Protocol: 4. Evaluation of the Losses During the Bubbling
The aroma losses upon bubbling have been evaluated by entrapment on an absorbing polymer (Tenax) of the gas effluent at the flask outlet and by extraction of the liquid phase with pentane. The same is done for all the gasses being used.
The loss test is made on a 50 mL of a 2-nonanone solution (50 ppm) in NaCl (50 mM, pH 7.5).
The gas is simultaneously bubbled (8 min) at the same flowrate of 20 mL.min^−1 in the flask, then the gas effluent is entrapped on Tenax at the flask outlet. This Tenax trap is afterwards desorbed on a TCT Chrompak apparatus coupled with a HP chromatograph provided with a FID detector.
The amount of aroma entrapped on Tenax is determined in comparison with an external calibration curve. This calibration curve is obtained as described hereinafter: 1 μl of 2-nonanone solution is deposited in pentane in the glass cotton of the Tenax tube upper part, then the Tenax tube is desorbed in the same conditions as for the analysis. Different concentrations have been tested.
The amount of aroma remaining in the liquid phase is determined by extraction of the aroma solution (5 mL) by pentane (5 mL). One μl of the organic phase is injected in split/splitless in CPG. A comparison is made with an external calibration, obtained by injection of 1 μl of 2-nonanone solution in pentane.

[3] = Retention of aroma between aqueous phase (water) and organic liquid phase (dichloromethane) versus redox; details: water/dichloromethane mixture; FIG. 9
From the text: FIG. 9 illustrates the results of a measurement of the retention degree of 2-nonanone between an aqueous phase (water) and an organic liquid phase (dichloromethane) with non pressurized flasks (diamonds) or pressurized flasks with hydrogen (squares).
The experiment of Example 2 is realized, but in a mixture of water (aqueous phase)/dichloromethane (CH2Cl2, organic phase).

[4] = Static headspace measurement with redox modified by addition of molecules (DTT, potassium ferricyanide)
Protocol: 1. Preparation of the Reducing Medium
The reducing medium is obtained by addition of DTT(1,4-dithiothreitol). The ultrapure water employed for the solution preparation is degassed with a high gas flowrate during 1 h. La 2-nonanone solution (50 ppm) is prepared through addition of such aroma into the degassed water; the solution volume has been chosen so that a minimum of air exists between the plug and the solution. The thus prepared solution is stirred for homogenisation for 30 min.
An aliquot of this solution is added with DTT (10 g.l^−1) and then this solution is stirred for 30 min.
In order to prevent the dilution phenomenon, another protocol has been used: the degassed water is added with DTT (10 g.l^−1), then the aroma is added.
The thus prepared solutions are distributed at a level of 10 mL in 40 mL brown flasks (Supelco, France) closed by Mininert valves (Supelco). The flasks are pressurized with nitrogen for 1 min with a flowrate of 260 mL.min^−1. The overpressure is then evacuated. The flasks are then equilibrated during 1 h 30 in a water bath at 30° C. For each one of the conditions, 4 repetitions are realized.
2. Preparation of the Oxidizing Medium
The oxidizing medium is obtained by addition of potassium ferricyanide.
Two aroma solutions are prepared: for solution 1, the 2-nonanone is solubilized in water and then the solution is stirred for 30 min; for solution 2, the potassium ferricyanide is dissolved in water, then the 2-nonanone is added. This solution is afterwards stirred during 30 min.
The thus prepared solutions are distributed at a level of 10 mL in 40 mL brown flasks (Supelco, France) closed by Mininert valves (Supelco).
The flasks are then equilibrated during 1 h 30 in a water bath at 30° C. For each one of the conditions, 4 repetitions are realized.

CCCCCCCC(C)=O [2-nonanone]
effect of a positive redox potential value on release ([1]; aqueous liquid phase contacted with 100% oxygen or air (21% oxygen), same with 100% nitrogen): favours the release or the transfer
retention within the liquid phase with helium gas ([1]; aqueous solution pH 7.5, helium, redox +400 mV): no significant difference
modification of the medium aroma release at low redox (headspace) ([1]; aqueous solution pH 7.5, hydrogen -320 mV versus nitrogen/oxygen about +500 mV, FIG. 1): ~−30%
effect when the atmosphere is neutral or oxidizing and the redox increases ([1]; aqueous solution pH 7.5, hydrogen, non pressurized flask, FIG. 8): effect inverses
effect at low redox under reducing atmosphere ([1]; aqueous solution pH 7.5, hydrogen, pressurized flask, FIG. 8): retention effect
difference of retention depending on the redox ([1]; aqueous solution with beta-lactoglobuline at 3%, pH 7.5 and acid medium, FIG. 2): does not show any difference of retention depending on the redox
modification of the aroma release at low redox (headspace) ([1]; aqueous solution, acid medium, FIG. 1): −20%
effect of a negative level of redox potential on retention ([1]; liquid phase contacted with gas containing 100% hydrogen): favours the 2-nonanone retention in the liquid phase
change of mass sharing coefficient Ki when the redox potential of the first liquid phase is lowered [1]: growth of the mass sharing coefficient Ki value
change of mass sharing coefficient Ki at low redox potential ([1]; skimmed milk, pH 4.6): reduction of the mass sharing coefficient value Ki
effect at high redox ([1]; skimmed milk, FIG. 7): no effect
retention effect at low redox ([1]; skimmed milk, FIG. 7): −20%
redox effect on the aroma release ([1]; whole milk, FIG. 7): do not show any redox effect
aroma losses during bubbling ([2]; helium): 0.5%
aroma losses during bubbling ([2]; hydrogen): 0.3%
aroma losses during bubbling ([2]; nitrogen): 2%
aroma losses during bubbling ([2]; oxygen): 2.3%
aroma losses during bubbling ([2]; regardless of the gas employed, bubbling 8 min at 20 mL/min): < 3%
retention in the aqueous phase at low redox [3]: better retained in the aqueous phase
effect of reducing the redox potential by a reducing compound ([4]; aqueous liquid phase, dithiothreitol (DTT) added): favours the 2-nonanone retention in the liquid phase
effect of increasing the redox potential by an oxidizing compound ([4]; aqueous liquid phase, potassium ferricyanide added): favours the 2-nonanone release or transfer towards the second gas phase
release in the vapour phase in a reducing medium versus oxidizing medium ([4]; water, 50 ppm, DTT 10 g/l versus potassium ferricyanide, FIG. 10): less 2-nonanone released in the vapour phase than in the oxidizing medium

CC(=O)C(C)=O [diacetyl]
effect of redox on aroma release/retention (headspace) ([1]; conditions of Examples 2, 3, 4): +20%
change of mass sharing coefficient Ki when the redox potential of the first liquid phase is lowered [1]: increase of the mass sharing coefficient Ki

C=CCN=C=S [AITC, allyl isothiocyanate]
effect of redox on aroma release/retention (headspace) ([1]; conditions of Examples 2, 3, 4): −30%
change of mass sharing coefficient Ki when the redox potential of the first liquid phase is lowered [1]: growth of the mass sharing coefficient Ki value

CCCCCC(=O)OCC [ethyl hexanoate]
effect of redox on aroma release/retention (headspace), in words ([1]; conditions of Examples 2, 3, 4, FIG. 5): no effect
change of mass sharing coefficient Ki when the redox potential of the first liquid phase is lowered [1]: lack of significant modification
